How the values were obtained:
Assay type in all cases: in vivo, rat
MCP-1 = test: Serum and vaginal tissue MCP-1 after intravaginal dosing of rats (ELISA); settings: for MCP-1 Tissue: vaginal tissue, per 200 mg
Description: (§1) In the examples below the serum and intravaginal cytokine data were obtained using the following general test method.
(§2) Rats were acclimated to collars (Lomir Biomedical, Malone, N.Y.) around the neck on two consecutive days prior to actual dosing. Rats were collared to prevent removal of the device and ingestion of the drug. Animals were then dosed intravaginally with a removable device or with […] of cream. Single dosed rats received one intravaginal dose with samples collected at various times following dosing. Blood was collected by cardiac puncture. Blood was allowed to clot briefly at room temperature and serum was separated from the clot via centrifugation. The serum was stored at −20° C. until it was analyzed for cytokine concentrations.
(§3) Following blood collection, the rats were euthanized and their vaginal tract, including the cervix, was then removed and the tissue was weighed, placed in a sealed 1.8 mL cryovial and flash frozen in liquid nitrogen. The frozen vaginal tissue sample was then suspended in 1.0 mL of RPMI medium (Celox, St. Paul, Minn.) containing 10% fetal bovine serum (Atlas, Fort Collins, Colo.), 2 mM L-glutamine, penicillin/streptomycin and 2-mercaptoethanol (RPMI complete) combined with a protease inhibitor cocktail set III (Calbiochem, San Diego, Calif.). The tissue was homogenized using a Tissue Tearor (Biospec Products, Bartlesville, Okla.) for approximately one minute. The tissue suspension was then centrifuged at 2000 rpm for 10 minutes under refrigeration to pellet the debris, and the supernatant collected and stored at −20° C. until analyzed for cytokine concentrations.
(§4) ELISA kits for rat TNF were purchased from BD PharMingen (San Diego, Calif.) and the rat MCP-1 ELISA kits were purchased from BioSource Intl. (Camarillo, Calif.).
(§5) Both kits were performed according to manufacturer's specifications. Results for both TNF and MCP-1 are expressed in pg/mL and are normalized per 200 mg of tissue. […] “Post dosing” means after treatment initiation. For example, if a device was inserted a time 0 hours and removed at 2 hours and cytokines were assayed at 4 hours, then the cytokines were assayed at 4 hours post dosing.

TNF = test: Serum and vaginal tissue TNF after intravaginal dosing of rats (ELISA); settings: for TNF Tissue: vaginal tissue, per 200 mg
Description: as §1, §2, §3, §4, §5

rats = test: Histologic examination of uterus, cervix, vagina, vulva and perineal skin, Example 11; settings: 1% device removed after 2 hours
Description: Cotton devices were prepared as described in Example 1. The devices were saturated with either a solution containing 1% by weight of IRM 2 in 50/50 w/w isostearic acid/isopropyl myristate or with 50/50 w/w isostearic acid/isopropyl myristate (vehicle). Three groups of rats were dosed intravaginally 2 times a week for 3 weeks (Tuesday, Friday, Monday, Thursday, Monday, Thursday) with 1% IRM 2 device, vehicle device or with 1% IRM 2 cream. The devices were removed after 2 hours. The cream was left in place. Cytokines were assayed 4 hours post dosing of the final dose. Three more groups of rats were dosed intravaginally with 1% IRM 2 device, vehicle device or with 1% ERM 2 cream. The devices were removed after 2 hours. The cream was left in place. Cytokines were assayed 4 hours post dosing. […] The results are shown in the table below where each value is the mean value for 3 rats.
Groups of 3 rats were treated as described in Example 8 and necropsied 22 hours after the devices were removed. Uterus, cervix, vagina, vulva and perineal skin were collected, fixed and processed routinely for histologic examination.

[1] = 4 hours post dosing, 1% in 50/50 ISA/IPM, cotton pellet device removed after 2 hours, Example 6
[2] = 4 hours post dosing, device 1.0% in 50/50 ISA/IPM, removed after 15 min, Example 4
[3] = 4 hours post dosing, device 1.0% in 50/50 ISA/IPM, removed after 30 min, Example 4
[4] = 4 hours post dosing, device 1.0% in 50/50 ISA/IPM, removed after 60 min, Example 4
[5] = 4 hours post dosing, device 1.0% in 50/50 ISA/IPM, removed after 120 min, Example 4
[6] = 4 hours post dosing, single dose, 1% in 50/50 ISA/IPM cotton device removed after 2 hours, Example 8
[7] = 4 hours post final dose, multiple dose, 2 times a week for 3 weeks, 1% in 50/50 ISA/IPM cotton device removed after 2 hours, Example 8
[8] = Multiple dose (2 times a week for 3 weeks)

Q: Which results are given for Cc1nc2c(N)nc3ccccc3c2n1CC(C)(C)O [IRM 2, 4-amino-α,α,2-trimethyl-1H-imidazo[4,5-c]quinoline-1-ethanol]?
A: MCP-1 Serum (MCP-1; [1]): 114 pg/mL; MCP-1 Serum (MCP-1; [2]): 68 pg/mL; MCP-1 Serum (MCP-1; [3]): 83 pg/mL; MCP-1 Serum (MCP-1; [4]): 118 pg/mL; MCP-1 Serum (MCP-1; [5]): 92 pg/mL; MCP-1 Serum (MCP-1; [6]): 59 pg/mL; MCP-1 Serum (MCP-1; [7]): 87 pg/mL; MCP-1 Tissue (MCP-1; [1]): 1016 pg/mL; MCP-1 Tissue (MCP-1; [2]): 433 pg/mL; MCP-1 Tissue (MCP-1; [3]): 454 pg/mL; MCP-1 Tissue (MCP-1; [4]): 889 pg/mL; MCP-1 Tissue (MCP-1; [5]): 2462 pg/mL; MCP-1 Tissue (MCP-1; [6]): 1390 pg/mL; MCP-1 Tissue (MCP-1; [7]): 2353 pg/mL; TNF Serum (TNF; [1]): 4 pg/mL; TNF Serum (TNF; [2]): 0 pg/mL; TNF Serum (TNF; [3]): 0 pg/mL; TNF Serum (TNF; [4]): 0 pg/mL; TNF Serum (TNF; [5]): 0 pg/mL; TNF Serum (TNF; [6]): 0 pg/mL; TNF Serum (TNF; [7]): 0 pg/mL; TNF Tissue (TNF; [1]): 384 pg/mL; TNF Tissue (TNF; [2]): 493 pg/mL; TNF Tissue (TNF; [3]): 390 pg/mL; TNF Tissue (TNF; [4]): 537 pg/mL; TNF Tissue (TNF; [5]): 716 pg/mL; TNF Tissue (TNF; [6]): 888 pg/mL; TNF Tissue (TNF; [7]): 1075 pg/mL; Lesion incidence: Cervix, Cavitation (epithelium) (rats; [8]): 0/3; Lesion incidence: Cervix, Inflammation (rats; [8]): 1/3; Lesion incidence: Perineal skin, Exudate on surface, epidermis (rats; [8]): 0/3; Lesion incidence: Perineal skin, Inflammation, superficial dermis (rats; [8]): 1/3; Lesion incidence: Perineal skin, Spongiosis, epidermis (rats; [8]): 1/3; Lesion incidence: Perineal skin, Subcorneal pustules, epidermis (rats; [8]): 1/3; Lesion incidence: Vagina, Edema, lamina propria (rats; [8]): 0/3; Lesion incidence: Vagina, Inflammation, lamina propria (rats; [8]): 3/3; Lesion incidence: Vulva, Edema, lamina propria (rats; [8]): 1/3; Lesion incidence: Vulva, Erosion (rats; [8]): 0/3; Lesion incidence: Vulva, Inflammation, lamina propria (rats; [8]): 3/3; Lesion incidence: Vulva, Intraepithelial pustules (rats; [8]): 0/3; Lesion incidence: Vulva, Necrosis, epithelium (rats; [8]): 1/3; Lesion incidence: Vulva, Spongiosis, epithelium (rats; [8]): 1/3; Lesion incidence: Vulva, Ulceration (rats; [8]): 0/3; Lesion incidence: Cervix, Cavitation (epithelium) (rats; Single dose): 0/3; Lesion incidence: Cervix, Inflammation (rats; Single dose): 0/3; Lesion incidence: Perineal skin, Exudate on surface, epidermis (rats; Single dose): 0/3; Lesion incidence: Perineal skin, Inflammation, superficial dermis (rats; Single dose): 1/3; Lesion incidence: Perineal skin, Spongiosis, epidermis (rats; Single dose): 0/3; Lesion incidence: Perineal skin, Subcorneal pustules, epidermis (rats; Single dose): 0/3; Lesion incidence: Vagina, Edema, lamina propria (rats; Single dose): 0/3; Lesion incidence: Vagina, Inflammation, lamina propria (rats; Single dose): 3/3; Lesion incidence: Vulva, Edema, lamina propria (rats; Single dose): 0/3; Lesion incidence: Vulva, Erosion (rats; Single dose): 0/3; Lesion incidence: Vulva, Inflammation, lamina propria (rats; Single dose): 3/3; Lesion incidence: Vulva, Intraepithelial pustules (rats; Single dose): 1/3; Lesion incidence: Vulva, Necrosis, epithelium (rats; Single dose): 1/3; Lesion incidence: Vulva, Spongiosis, epithelium (rats; Single dose): 0/3; Lesion incidence: Vulva, Ulceration (rats; Single dose): 0/3

— patent publication US20060216333A1, “Methods related to the treatment of mucosal associated conditions” (priority 2003, published 2006)
